biological target: T1, human JAK2 (Homo sapiens, UniProt O60674); assay: In vitro JAK kinase assay (HTRF, phosphorylation of biotinylated peptide); format: biochemical; conditions: catalytic domain a.a. 828-1132, 30 μM ATP, 500 nM peptide, room temperature 1 hr; read-out: JAK-2 IC50
T1 construct: JAK2 (a.a. 828-1132); His tag (N); made in house; host or cells: insect cells (baculovirus)
In short: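 IC50 from HTRF detection (Eu-Py20 antibody, SA-APC) of biotinylated-peptide phosphorylation (500 nM), run 1 h at RT. Enzyme: N-His human JAK2 kinase domain a.a. 828-1132 from insect cells; ATP 30 μM; buffer 50 mM Tris pH 7.8 with NaCl, DTT, BSA.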

T1 sequence (O60674 828-1132): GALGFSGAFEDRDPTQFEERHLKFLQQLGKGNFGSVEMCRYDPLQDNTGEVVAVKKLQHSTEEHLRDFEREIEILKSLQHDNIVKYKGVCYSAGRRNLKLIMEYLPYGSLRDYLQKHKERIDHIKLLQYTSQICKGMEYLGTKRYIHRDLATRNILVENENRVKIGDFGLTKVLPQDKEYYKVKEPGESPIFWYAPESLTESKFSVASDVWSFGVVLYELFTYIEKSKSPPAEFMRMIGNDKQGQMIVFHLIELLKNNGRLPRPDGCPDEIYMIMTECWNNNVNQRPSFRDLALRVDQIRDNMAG

IC50, < 100 nM:
COc1cnc(Nc2ccc(C(=O)N3CCCC3)cc2)nc1-c1cnn(C(CC#N)C2CCCC2)c1 (racemic) [Example 303, 3-cyclopentyl-3-(4-(5-methoxy-2-(4-(pyrrolidine-1-carbonyl)phenylamino)pyrimidin-4-yl)-1H-pyrazol-1-yl)propanenitrile]
COc1cnc(Nc2ccc(C(=O)N3CCN(C)CC3)cc2)nc1-c1cnn(C(CC#N)C2CCCC2)c1 (racemic) [Example 304, 3-cyclopentyl-3-(4-(5-methoxy-2-(4-(4-methylpiperazine-1-carbonyl)phenylamino)pyrimidin-4-yl)-1H-pyrazol-1-yl)propanenitrile]
COc1cnc(Nc2ccc(C(=O)NC3CCOCC3)cc2)nc1-c1cnn(C(CC#N)C2CCCC2)c1 (racemic) [Example 305, 4-(4-(1-(2-cyano-1-cyclopentylethyl)-1H-pyrazol-4-yl)-5-methoxypyrimidin-2-ylamino)-N-(tetrahydro-2H-pyran-4-yl)benzamide]
N#CCC(C1CCCC1)n1cc(-c2ccnc(Nc3ccc(OCCN4CCCC4)cc3)n2)cn1 (racemic) [Example 306, 3-cyclopentyl-3-[4-(2-{[4-(2-pyrrolidin-1-ylethoxy)phenyl]amino}pyrimidin-4-yl)-1H-pyrazol-1-yl]propanenitrile]
N#CCC(C1CCOCC1)n1cc(-c2ccnc(Nc3ccc(N4CCOCC4)cc3)n2)cn1 (racemic) [Example 308, 3-(4-{2-[(4-morpholin-4-ylphenyl)amino]pyrimidin-4-yl}-1H-pyrazol-1-yl)-3-(tetrahydro-2H-pyran-4-yl)propanenitrile]
N#CCC(C1CCOCC1)n1cc(-c2ccnc(Nc3ccc(C(=O)N4CCCC4)cc3)n2)cn1 (racemic) [Example 310, 3-[4-(2-{[4-(pyrrolidin-1-ylcarbonyl)phenyl]amino}pyrimidin-4-yl)-1H-pyrazol-1-yl]-3-(tetrahydro-2H-pyran-4-yl)propanenitrile]
N#CCC(C1CCOCC1)n1cc(-c2ccnc(Nc3ccc(C(=O)N4CCOCC4)cc3)n2)cn1 (racemic) [Example 311, 3-[4-(2-{[4-(morpholin-4-ylcarbonyl)phenyl]amino}pyrimidin-4-yl)-1H-pyrazol-1-yl]-3-(tetrahydro-2H-pyran-4-yl)propanenitrile]
N#CCC(C1CCOCC1)n1cc(-c2ccnc(Nc3ccc(C(=O)N4CCC(O)CC4)cc3)n2)cn1 (racemic) [Example 312, 3-{4-[2-({4-[(4-hydroxypiperidin-1-yl)carbonyl]phenyl}amino)pyrimidin-4-yl]-1H-pyrazol-1-yl}-3-(tetrahydro-2H-pyran-4-yl)propanenitrile]
COC1CCN(C(=O)c2ccc(Nc3nccc(-c4cnn(C(CC#N)C5CCOCC5)c4)n3)cc2)CC1 (racemic) [Example 313, 3-{4-[2-({4-[(4-methoxypiperidin-1-yl)carbonyl]phenyl}amino)pyrimidin-4-yl]-1H-pyrazol-1-yl}-3-(tetrahydro-2H-pyran-4-yl)propanenitrile]
N#CCC(C1CCOCC1)n1cc(-c2ccnc(Nc3ccc(C(=O)N4CCC(C#N)CC4)cc3)n2)cn1 (racemic) [Example 314, 1-{4-[(4-{1-[2-cyano-1-(tetrahydro-2H-pyran-4-yl)ethyl]-1H-pyrazol-4-yl}pyrimidin-2-yl)amino]benzoyl}piperidine-4-carbonitrile]
N#CCC(C1CC1)n1cc(-c2ccnc(Nc3ccc(C(=O)N4CCC(C#N)CC4)cc3)n2)cn1 (racemic) [Example 318, 1-[4-({4-[1-(2-cyano-1-cyclopropylethyl)-1H-pyrazol-4-yl]pyrimidin-2-yl}amino)benzoyl]piperidine-4-carbonitrile]
CCS(=O)(=O)N1CC(CC#N)(n2cc(-c3ccnc(Nc4ccc(C(=O)N5CCC(C#N)CC5)cc4)n3)cn2)C1 (racemic) [Example 319, 1-{4-[(4-{1-[3-(cyanomethyl)-1-(ethylsulfonyl)azetidin-3-yl]-1H-pyrazol-4-yl}pyrimidin-2-yl)amino]benzoyl}piperidine-4-carbonitrile]
COc1cnc(Nc2cccc(-c3cnco3)c2)nc1-c1cnn(C(CC#N)C2CC2)c1 (racemic) [Example 320, 3-cyclopropyl-3-[4-(5-methoxy-2-{[3-(1,3-oxazol-5-yl)phenyl]amino}pyrimidin-4-yl)-1H-pyrazol-1-yl]propanenitrile]
COc1cnc(Nc2cccc([N+](=O)[O-])c2)nc1-c1cnn(C(CC#N)C2CC2)c1 (racemic) [Example 321, 3-cyclopropyl-3-(4-{5-methoxy-2-[(3-nitrophenyl)amino]pyrimidin-4-yl}-1H-pyrazol-1-yl)propanenitrile]
COc1cnc(Nc2cccc(C(=O)NC3CCOCC3)c2)nc1-c1cnn(C(CC#N)C2CC2)c1 (racemic) [Example 323, 3-({4-[1-(2-cyano-1-cyclopropylethyl)-1H-pyrazol-4-yl]-5-methoxypyrimidin-2-yl}amino)-N-(tetrahydro-2H-pyran-4-yl)benzamide]
COc1cnc(Nc2cccc(C(=O)N3CCCC3)c2)nc1-c1cnn(C(CC#N)C2CC2)c1 (racemic) [Example 324, 3-cyclopropyl-3-[4-(5-methoxy-2-{[3-(pyrrolidin-1-ylcarbonyl)phenyl]amino}pyrimidin-4-yl)-1H-pyrazol-1-yl]propanenitrile]
COc1cnc(Nc2cccc(C(=O)N3CCOCC3)c2)nc1-c1cnn(C(CC#N)C2CC2)c1 (racemic) [Example 328, 3-cyclopropyl-3-[4-(5-methoxy-2-{[3-(morpholin-4-ylcarbonyl)phenyl]amino}pyrimidin-4-yl)-1H-pyrazol-1-yl]propanenitrile]
COc1cnc(Nc2cccc(C(=O)N3CCC(O)CC3)c2)nc1-c1cnn(C(CC#N)C2CC2)c1 (racemic) [Example 329, 3-cyclopropyl-3-{4-[2-({3-[(4-hydroxypiperidin-1-yl)carbonyl]phenyl}amino)-5-methoxypyrimidin-4-yl]-1H-pyrazol-1-yl}propanenitrile]
COc1cnc(Nc2cccc(C(=O)N3CCC(OC)CC3)c2)nc1-c1cnn(C(CC#N)C2CC2)c1 (racemic) [Example 330, 3-cyclopropyl-3-{4-[5-methoxy-2-({3-[(4-methoxypiperidin-1-yl)carbonyl]phenyl}amino)pyrimidin-4-yl]-1H-pyrazol-1-yl}propanenitrile]
COc1cnc(Nc2cccc(C(=O)N3CCC(C#N)CC3)c2)nc1-c1cnn(C(CC#N)C2CC2)c1 (racemic) [Example 331, 1-[3-({4-[1-(2-cyano-1-cyclopropylethyl)-1H-pyrazol-4-yl]-5-methoxypyrimidin-2-yl}amino)benzoyl]piperidine-4-carbonitrile]
COc1cnc(Nc2cccc(C(=O)N3[C@@H]4CC[C@H]3C[C@@H](O)C4)c2)nc1-c1cnn(C(CC#N)C2CC2)c1 (mixture of isomers) [Example 332, 3-cyclopropyl-3-(4-{2-[(3-{[(3-endo)-3-hydroxy-8-azabicyclo[3.2.1]oct-8-yl]carbonyl}phenyl)amino]-5-methoxypyrimidin-4-yl}-1H-pyrazol-1-yl)propanenitrile]

Reference: patent US8309718B2, “4-pyrazolyl-N-arylpyrimidin-2-amines and 4-pyrazolyl-N-heteroarylpyrimidin-2-amines as janus kinase inhibitors” (Incyte Corporation, priority 2007, dated 2012)
